We go through 10 compounds from article PMC10844532, “The in vivo study on antioxidant activity of wendan decoction in treating hyperlipidemia: a pharmacokinetic-pharmacodynamic (PK-PD) model” (Frontiers in Pharmacology, 2024).

The structures appear in SMILES notation. Read-outs that look alike come from different tables or passages of the source.

A short description of series [1]: Plasma pharmacokinetics of 10 WDD components after gavage of WDD (LC-MS/MS, Phoenix NCA and compartment model). It counts as in vivo, SD rats. On the set-up: Tmax: unit: h. The conditions noted are these: for AUC(0-t) / Cmax / half-life / Tmax / t1/2: hyperlipidemia rat plasma, non-compartment, n = 6; for Model (optimal PK compartment model): chosen by AIC, Phoenix Model module, rats given WDD. As to the method: LPO values of all the rats were assessed prior to therapy, and utilized as the baseline. […] Thermo Scientific Hypersil C18 analytical column (particle size: 1.9 µm, length: 100 mm, and diameter: 2.1 mm) was employed. Column operational conditions were like so, column temperature: 30°C, autosampler temperature: 4°C, whereas the flow rate: 0.3 mL/min. Injection volume: 3 μL, and mobile phase: aqueous solution containing 0.1% formic acid aqueous solution (A) and acetonitrile (B). […] Electrospray ion source (ESI) was used for mass spectrometry detection and analysis, both in positive and negative ion patterns. Nitrogen was kept as both of the auxiliary and sheath gas. The capillary temperature was 345°C, the atomizer temperature was 350°C, and the electrospray voltage was 3800 V. The mass spectrometry data for the 10 compounds and the internal standard (IS) are shown in Table 1. After accurately measuring 100 μL of plasma, 10 μL of the QC solution or the IS solution was supplemented, and the blend was vortexed for 30 s. Afterward, 300 μL of acetonitrile (as protein precipitant) was added, vortexed for 1 min, and then centrifuged (10 min at 12000 r/min). Finally, the supernatant was taken and stored for testing. […] The dose, plasma concentration and time after administration were imported into the NCA (Noncompartmental Analysis) module of Phoenix 8.1 to obtain the pharmacokinetic parameters. The Phoenix Model module of Phoenix software was used to establish the atrioventricular model of the drug. Akaike Information Criterion (AIC) rules were used to calculate the optimal PK model.

The next series deals with HDL. Set-up: method as in Eu et al., 2010. To be noted: ref Eu et al., 2010; cited from earlier work.
Another series has as its system hyperlipidemia hamsters. Set-up: method as in Shi et al., 2023. The conditions noted are these: compared with the control group ref Shi et al., 2023; cited from earlier work.
In series [2] the test system is experimental hyperlipidemia rat models. On the set-up: method as in Kumar et al., 2020. The conditions noted are these: experimental hyperlipidemia rat models ref Kumar et al., 2020; cited from earlier work.
For a further series, the system named is hyperlipidemia mice. Set-up: method as in Yu et al., 2022. To be noted: hyperlipidemia mice ref Yu et al., 2022; cited from earlier work.
The next series concerns plasma lipids. On the set-up: method as in Sahebkar, 2017. To be noted: randomized controlled trials ref Sahebkar, 2017, cited from earlier work.
Where [3] appears, read: Sprague-Dawley, po, HTG: WDD 6.6 g/100 g by gavage.
Where [4] appears, read: Sprague-Dawley, po, LTG: WDD 2.2 g/100 g by gavage.
[5] abbreviates: Sprague-Dawley, rat, plasma, po, 2.2 g/100 g, LTG: WDD 2.2 g/100 g by gavage.
The mark [6] stands for this setting: Sprague-Dawley, rat, plasma, po, 2.2 g/100 g, LTG: WDD 2.2 g/100 g by gavage, read-out: Tmax.
[7] abbreviates: Sprague-Dawley, rat, plasma, po, 6.6 g/100 g, HTG: WDD 6.6 g/100 g by gavage.
The mark [8] stands for this setting: Sprague-Dawley, rat, plasma, po, 6.6 g/100 g, HTG: WDD 6.6 g/100 g by gavage, read-out: Tmax.

Take `CC1(C)[C@@H](O)CC[C@]2(C)[C@H]3C(=O)C=C4[C@@H]5C[C@@](C)(C(=O)O)CC[C@]5(C)CC[C@@]4(C)[C@]3(C)CC[C@@H]12` [Glycyrrhetinic acid]: the AUC(0-t) (in general, the area under the concentration-time curve up to a stated or last time point) came to 10200 ± 298 ng·h/mL in series [1] (setting [3]) and 8180 ± 500 ng·h/mL in series [1] (setting [4]). The results for the Cmax in series [1] (setting [3]) and in series [1] (setting [4]) were 3280 ± 475 ng/mL and 2940 ± 220 ng/mL, respectively. Also, the half-life (as a rule, the time needed for the level to fall by half in the phase considered) in series [1] (setting [5]) is 2.3 ± 0.16 h; in series [1] (setting [7]), 6.02 ± 0.92 h. In addition, the values for the Tmax in series [1] (setting [6]) and in series [1] (setting [8]) were 0.75 h and 0.54 ± 0.21 h, respectively. Besides, the “bioavailability (from largest AUC in rat plasma)” value in series [1] (both doses of WDD) is recorded as “good bioavailability”.
For the compound `CC1(C)[C@@H](O[C@H]2O[C@H](C(=O)O)[C@@H](O)[C@H](O)[C@H]2O[C@@H]2O[C@H](C(=O)O)[C@@H](O)[C@H](O)[C@H]2O)CC[C@]2(C)[C@H]3C(=O)C=C4[C@@H]5C[C@@](C)(C(=O)O)CC[C@]5(C)CC[C@@]4(C)[C@]3(C)CC[C@@H]12` [Glycyrrhizic acid], the values for the AUC(0-t) in series [1] (setting [3]) and in series [1] (setting [4]) were 128 ± 5.67 ng·h/mL and 104 ± 5.97 ng·h/mL, respectively. The Cmax – broadly, the peak of the concentration-time curve – in series [1] (setting [3]) was found to be 45.1 ± 2.3 ng/mL; in series [1] (setting [4]), 20.6 ± 2.16 ng/mL. The half-life in series [1] (setting [5]) was 10.8 ± 3.88 h; in series [1] (setting [7]), 15.5 ± 7.44 h. The Tmax (usually the time from dosing to the highest level) in series [1] (setting [6]) amounted to 1.5 h; in series [1] (setting [8]), 0.25 h. For the same compound, the “Model (optimal PK compartment model)” value in series [1] is recorded as “One-Compartment Model”. Moreover, the HDL result with HDL is reported as “can increase HDL”.
Turning to `COc1ccc([C@@H]2CC(=O)c3c(O)cc(O)cc3O2)cc1O` [Hesperetin], the Tmax came to 0.67 ± 0.17 h in series [1] (HTG: WDD 6.6 g/100 g by gavage); 0.25 h in series [1] (HTG: WDD 6.6 g/100 g by gavage, listed as hesperetin); 1.42 ± 0.92 h in series [1] (setting [6]). The compound further came in with a t1/2 in series [1] (HTG: WDD 6.6 g/100 g by gavage) of 6.24 ± 0.36 h. Moreover, the AUC(0-t) in series [1] (setting [3]) came to 3890 ± 147 ng·h/mL; in series [1] (setting [4]) it was 1030 ± 23.8 ng·h/mL. The figures for the Cmax in series [1] (setting [3]) and in series [1] (setting [4]) were 607 ± 130 ng/mL and 223 ± 8.19 ng/mL, respectively. In addition, the values for the half-life in series [1] (setting [5]) and in series [1] (setting [7]) were 5.88 ± 3.39 h and 3.21 h, respectively. For the same compound, the “Model (optimal PK compartment model)” value in series [1] is listed as “One-Compartment Model”. Further, the “body weight, obesity index, serum TC, TG, liver TC, TG and free fatty acid levels” value in the series with hyperlipidemia hamsters is on record as “significantly decreased”.
As to `COc1ccc([C@@H]2CC(=O)c3c(O)cc(O[C@@H]4O[C@H](CO[C@@H]5O[C@@H](C)[C@H](O)[C@@H](O)[C@H]5O)[C@@H](O)[C@H](O)[C@H]4O)cc3O2)cc1O` [Hesperidin], the AUC(0-t) turned out to be 439 ± 13.3 ng·h/mL in series [1] (setting [3]) and 172 ± 3.26 ng·h/mL in series [1] (setting [4]). Also, the Cmax in series [1] (setting [3]) was found to be 194 ± 24.3 ng/mL; in series [1] (setting [4]), 34.6 ± 3.22 ng/mL. Besides, the half-life in series [1] (setting [5]) is 12.1 ± 5.52 h; in series [1] (setting [7]) it was 4.19 ± 0.17 h. The Tmax was found to be 0.67 ± 0.42 h in series [1] (setting [6]) and 0.75 h in series [1] (setting [8]). Further, the “Model (optimal PK compartment model)” value in series [1] is recorded as “One-Compartment Model”. Moreover, the altered redox homeostasis entry in series [2] was “can reduce altered redox homeostasis”.
As to `O=C(/C=C/c1ccc(O)cc1)c1ccc(O)cc1O` [Isoliquiritigenin], the Tmax in series [1] (HTG: WDD 6.6 g/100 g by gavage) amounted to 0.79 ± 0.21 h; in series [1] (HTG: WDD 6.6 g/100 g by gavage, listed as isoliquiritigenin) it was 0.25 h; in series [1] (setting [6]), 0.5 h. The AUC(0-t) is 54.9 ± 2.07 ng·h/mL in series [1] (setting [3]) and 48.5 ± 0.82 ng·h/mL in series [1] (setting [4]). For the same compound, the figures for the Cmax in series [1] (setting [3]) and in series [1] (setting [4]) were 17.8 ± 3.31 ng/mL and 16.2 ± 2.35 ng/mL, respectively. The half-life was 27.4 ± 4.66 h in series [1] (setting [5]) and 14.6 ± 9 h in series [1] (setting [7]).
`O=C1C[C@@H](c2ccc(O)cc2)Oc2cc(O)cc(O)c21` [Naringenin]: the AUC(0-t) in series [1] (setting [3]) worked out at 595 ± 15.4 ng·h/mL; in series [1] (setting [4]) it was 587 ± 14.3 ng·h/mL. The peak concentration (Cmax) in series [1] (setting [3]) came to 139 ± 10.6 ng/mL; in series [1] (setting [4]), 110 ± 6.8 ng/mL. Moreover, the half-life in series [1] (setting [5]) was 12.5 ± 4.08 h; in series [1] (setting [7]), 11.7 ± 1.94 h. For the same compound, the Tmax in series [1] (setting [6]) and in series [1] (setting [8]) was 0.75 h in each case. Also, the “Model (optimal PK compartment model)” value in series [1] was “One-Compartment Model”.
`C[C@@H]1O[C@@H](O[C@H]2[C@H](Oc3cc(O)c4c(c3)O[C@H](c3ccc(O)cc3)CC4=O)O[C@H](CO)[C@@H](O)[C@@H]2O)[C@H](O)[C@H](O)[C@H]1O` [Naringin]: the AUC(0-t) was 713 ± 46.4 ng·h/mL in series [1] (setting [3]) and 210 ± 12.5 ng·h/mL in series [1] (setting [4]). Also, the figures for the highest concentration (Cmax) in series [1] (setting [3]) and in series [1] (setting [4]) were 575 ± 17.6 ng/mL and 36.8 ± 4.99 ng/mL, respectively. Also, the figures for the half-life in series [1] (setting [5]) and in series [1] (setting [7]) were 6.13 ± 0.94 h and 5 ± 1.27 h, respectively. In addition, the Tmax in series [1] (setting [6]) came out at 0.54 ± 0.21 h; in series [1] (setting [8]) it was 0.25 h. Moreover, in series [1], the “Model (optimal PK compartment model)” value is on record as “Two-Compartment Model”. Also, the “effect on reducing lipids and protecting liver” value in the series on hyperlipidemia mice was “strong effect on reducing lipids and protecting liver”.
The compound `O=c1c(O)c(-c2ccc(O)c(O)c2)oc2cc(O)cc(O)c12` [Quercetin] came in with a t1/2 in series [1] (HTG: WDD 6.6 g/100 g by gavage) of 7.75 ± 12.99 h. Besides, the Tmax was 1.00 ± 0.00 h in series [1] (LTG: WDD 2.2 g/100 g by gavage) and 0.75 h in series [1] (setting [8]). Also, the area under the curve AUC(0-t) in series [1] (setting [3]) came to 370 ± 14.7 ng·h/mL; in series [1] (setting [4]), 212 ± 9.39 ng·h/mL. Also, the figures for the Cmax in series [1] (setting [3]) and in series [1] (setting [4]) were 115 ± 4.83 ng/mL and 98.4 ± 8.03 ng/mL, respectively. In series [1] (setting [5]), the half-life was 31.1 ± 41.4 h. For the same compound, the “Model (optimal PK compartment model)” value in series [1] was “Two-Compartment Model”. Besides, the triglycerides entry with plasma lipids (doses above 50 mg/day) is reported as “significant reduction”. Moreover, the “effect on plasma lipids” value with plasma lipids (supplementation) is given as “does not have any clinically relevant effect”.
`COc1ccc(-c2cc(=O)c3c(OC)c(OC)c(OC)c(OC)c3o2)cc1` [Tangeretin]: the figures for the AUC(0-t) in series [1] (setting [3]) and in series [1] (setting [4]) were 22.4 ± 0.89 ng·h/mL and 10.8 ± 0.32 ng·h/mL, respectively. In addition, the Cmax turned out to be 25.9 ± 2.98 ng/mL in series [1] (setting [3]) and 6.8 ± 0.46 ng/mL in series [1] (setting [4]). Also, the values for the half-life in series [1] (setting [5]) and in series [1] (setting [7]) were 8.83 ± 4.57 h and 3.21 ± 0.89 h, respectively. For the same compound, the results for the Tmax in series [1] (setting [6]) and in series [1] (setting [8]) were 0.5 h and 0.38 ± 0.13 h, respectively. Further, the “Model (optimal PK compartment model)” value in series [1] is listed as “Two-Compartment Model”.
With `C[n+]1cccc(C(=O)[O-])c1` [Trigonelline], the AUC(0-t) in series [1] (setting [3]) stood at 6010 ± 96.4 ng·h/mL; in series [1] (setting [4]), 3560 ± 300 ng·h/mL. Further, the Cmax in series [1] (setting [3]) was found to be 537 ± 7.69 ng/mL; in series [1] (setting [4]) it was 388 ± 25.8 ng/mL. Further, the half-life was 12.2 ± 1.65 h in series [1] (setting [5]) and 11.8 ± 1.81 h in series [1] (setting [7]). Besides, the results for the Tmax in series [1] (setting [6]) and in series [1] (setting [8]) were 1.5 h and 2.67 ± 0.33 h, respectively. The “Model (optimal PK compartment model)” value in series [1] is given as “Two-Compartment Model”.
